Assays:
[1] = molecular target: T1, partially purified rat brain farnesyl protein transferase (FPT) (Rattus norvegicus, UniProt Q02293+Q04631); test: In vitro enzyme assay: inhibition of Ras-CVLS farnesylation by FPT; assay type: biochemical
T1 construct: partially purified rat brain farnesyl protein transferase (FPT); from tissue; host or cells: rat brain

[2] = test system: Ras processing in COS cells; test: Cell-based assay: COS cells, inhibition of Ras processing
Description: 2. Cell-Based Assay. COS IC50 values refer to the COS cells activity inhibition of Ras processing, are determined by the methods disclosed in […] or WO 95/10516.

IC50 [1] [nM]	Compound	IC50 [2] [nM]
4.6	NC(=O)[C@H](CO)NC(=O)N1CCC(CC(=O)N2CCC([C@H]3c4ncc(Br)cc4CCc4cc(Cl)cc(Br)c43)CC2)CC1 [Example 10]	300
5.4	O=C(CC1CCN(C(=O)Nc2ccccc2)CC1)N1CCC([C@H]2c3ncc(Br)cc3CCc3cc(Cl)cc(Br)c32)CC1 [Example 2]	33
0.8	O=C(O)CNC(=O)N1CCC(CC(=O)N2CCC([C@H]3c4ncc(Br)cc4CCc4cc(Cl)cc(Br)c43)CC2)CC1 [Example 12]	
0.9	NC(=O)CNC(=O)N1CCC(CC(=O)N2CCC([C@H]3c4ncc(Br)cc4CCc4cc(Cl)cc(Br)c43)CC2)CC1 [Example 13]	25
100	CCCNC(=O)N1CCC(CC(=O)N2CCN(C3c4ccc(Cl)cc4CCc4cc(Br)cnc43)CC2)CC1 (stereo not shown) [Example 15, 4-[2-[4-(3-Bromo-8-chloro-6,11-dihydro-5H-benzo[5,6]cyclohepta[1,2-b]pyridin-11-yl)-1-piperazinyl]-2-oxoethyl]-N-propyl-1-piperidinecarboxamide]	1500
3.1	O=C(CC1CCN(C(=O)NCCO)CC1)N1CCC([C@H]2c3ncc(Br)cc3CCc3cc(Cl)cc(Br)c32)CC1 [Example 11]	18
108	CC(C)(C)NC(=O)N1CCC(CC(=O)N2CCN(C3c4ccc(Cl)cc4CCc4cc(Br)cnc43)CC2)CC1 (stereo not shown) [Example 16, 4-[2-[4-(3-Bromo-8-chloro-6,11-dihydro-5H-benzo[5,6]cyclohepta[1,2-b]pyridin-11-yl)-1-piperazinyl]-2-oxoethyl]-N-(1,1-dimethylethyl)-1-piperidinecarboxamide]	
5.1	COc1ccccc1NC(=O)N1CCC(CC(=O)N2CCC([C@H]3c4ncc(Br)cc4CCc4cc(Cl)cc(Br)c43)CC2)CC1 [Example 1]	50
1.7	CCOC(=O)N1CCC(NC(=O)N2CCC(CC(=O)N3CCC([C@H]4c5ncc(Br)cc5CCc5cc(Cl)cc(Br)c54)CC3)CC2)CC1 [Example 6]	20
3.3	COC(=O)[C@H](CO)NC(=O)N1CCC(CC(=O)N2CCC([C@H]3c4ncc(Br)cc4CCc4cc(Cl)cc(Br)c43)CC2)CC1 [Example 9]	110
2	CCOC(=O)CNC(=O)N1CCC(CC(=O)N2CCC([C@H]3c4ncc(Br)cc4CCc4cc(Cl)cc(Br)c43)CC2)CC1 [Example 4]	
1.9	CNC(=O)N1CCC(CC(=O)N2CCC([C@H]3c4ncc(Br)cc4CCc4cc(Cl)cc(Br)c43)CC2)CC1 [Example 3]	
50	CNC(=O)N1CCC(CC(=O)N2CCN(C3c4ccc(Cl)cc4CCc4cc(Br)cnc43)CC2)CC1 (stereo not shown) [Example 14, 4-[2-[4-(3-Bromo-8-chloro-6,11-dihydro-5H-benzo[5,6]-cyclohepta[1,2-b]pyridin-11-yl)-1-piperazinyl]-2-oxoethyl]-N-methyl-1-piperidinecarboxamide]	750
8.7	COC(=O)[C@H](COC(C)(C)C)NC(=O)N1CCC(CC(=O)N2CCC([C@H]3c4ncc(Br)cc4CCc4cc(Cl)cc(Br)c43)CC2)CC1 [Example 8]	120
3.8	O=C(CC1CCN(C(=O)N(CCO)CCO)CC1)N1CCC([C@H]2c3ncc(Br)cc3CCc3cc(Cl)cc(Br)c32)CC1 [Example 7]	18

Compound	IC50 [1] [nM]	IC50 [2] [nM]
(+)-Methyl alpha(S)-[[[4-[2-[4-[(3,10-dibromo-8-chloro-6,11-dihydro-5H-benzo[5,6]cyclohepta[1,2-b]pyridin-11(R)-yl)-1-piperidinyl]-2-oxoethyl]-1-piperidinyl]carbonyl]amino]-beta-methylbutanoate [Example 5]	5	150

— US6699872B2, “N-substituted urea inhibitors of farnesyl-protein transferase” (Schering Corporation, priority 1997, dated 2004)
